Data: patent US20110263593A1, “NOVEL IMIDAZO[1,2-a]PYRIMIDINE DERIVATIVES, METHOD FOR THE PREPARATION THEREOF, USE THEREOF AS MEDICAMENTS, PHARMACEUTICAL COMPOSITIONS AND NOVEL USE, IN PARTICULAR AS MET INHIBITORS” (sanofi-aventis, priority 2008, published 2011)

What was measured:
[1] = tested on: HCT116 cells and MKN45 cells; test: Test C: measurement of cell proliferation by 14C-thymidine pulse; type: cell-based; conditions: 14C-thymidine incorporation, 96 h of treatment; cell line not stated (HCT116 and MKN45 in method)
Description: C) Test C: Measurement of cell proliferation by ^14C-thymidine pulse
The cells are seeded into Cytostar 96-well plates in 180 μl for 4 hours at 37° C. and 5% CO2: HCT116 cells at a rate of 2500 cells per well in DMEM medium+10% foetal calf serum+1% L-glutamine and MKN45 cells at a rate of 7500 cells per well in RPMI medium+10% foetal calf serum+1% L-glutamine. After these 4 hours of incubation, the products are added in 10 μl as a 20-fold concentrated solution according to the dilution method mentioned for the ELISA. The products are tested at 10 concentrations in duplicate from 10 000 nM to 0.3 nM with an increment of 3.
After treatment for 72 h, add 10 μl of ^14C-thymidine at 10 μCi/ml to obtain 0.1 μCi per well. The ^14C-thymidine incorporation is measured on a Micro-Beta machine (Perkin-Elmer) after 24 hours of pulse and 96 h of treatment.
All the stages of the assay are automated on BIOMEK 2000 or TECAN stations.

MET [2] = target: T1, MET (Homo sapiens, UniProt P08581); test: Test B: inhibition of the autophosphorylation of MET, ELISA technique (pppY1230, 1234, 1235) in MKN45 cells; type: cell-based; set-up: endogenous in cells; host or cells: MKN45 cells; conditions: 1 h treatment, phosphoMET ELISA
Description: B) Test B: Inhibition of the Autophosphorylation of MET; ELISA Technique (pppY1230, 1234, 1235)
a) Cell lysates: Seed MKN45 cells into 96-well plates (Cell coat BD polylysine) at 20 000 cells/well in 200 μl in RPMI medium+10% FCS+1% L-glutamine. Leave to adhere for 24 hours in an incubator.
The cells are treated the day after seeding with the products at 6 concentrations in duplicate for 1 h. At least 3 control wells are treated with the same final amount of DMSO.
Product dilution: Stock at 10 mM in pure DMSO—range from 10 mM to 30 μM with an increment of 3 in pure DMSO—intermediate 1/50 dilutions in culture medium and then removal of 10 μl added directly to the cells (200 μl): final range from 10 000 to 30 nM.
At the end of the incubation, carefully remove the supernatant and rinse with 200 μl of PBS. Next, place 100 μl of lysis buffer directly in the wells on ice and incubate at 4° C. for 30 minutes. Lysis buffer: 10 mM Tris HCl, pH 7.4, 100 mM NaCl, 1 mM EDTA, 1 mM EGTA, 1% Triton X-100, 10% glycerol, 0.1% SDS, 0.5% deoxycholate, 20 mM NaF, 2 mM Na3VO4, 1 mM PMSF and cocktail of antiproteases.
The 100 μl of lysates are transferred into a V-bottomed polypropylene plate and the ELISA is performed immediately, or the plate is frozen at −80° C.
b) PhosphoMET ELISA BioSource Kit KH00281
Into each well of the kit plate, add 70 μl of kit dilution buffer+30 μl of cell lysate or 30 μl of lysis buffer for the blanks. Incubate for 2 h with gentle agitation at ambient temperature.
Rinse the wells 4 times with 400 μl of kit washing buffer. Incubate with 100 μl of anti-phospho MET antibody for 1 hour at ambient temperature.
Rinse the wells 4 times with 400 μl of kit washing buffer. Incubate with 100 μl of anti-rabbit HRP antibody for 30 minutes at ambient temperature (except for the wells of chromogen alone).
Rinse the wells 4 times with 400 μl of kit washing buffer. Introduce 100 μl of chromogen and incubate for 30 minutes in the dark at ambient temperature.
Stop the reaction with 100 μl of stop solution. Read without delay at […], 0.1 second on Wallac Victor plate reader.
Target sequence in this assay (P08581 25-1390): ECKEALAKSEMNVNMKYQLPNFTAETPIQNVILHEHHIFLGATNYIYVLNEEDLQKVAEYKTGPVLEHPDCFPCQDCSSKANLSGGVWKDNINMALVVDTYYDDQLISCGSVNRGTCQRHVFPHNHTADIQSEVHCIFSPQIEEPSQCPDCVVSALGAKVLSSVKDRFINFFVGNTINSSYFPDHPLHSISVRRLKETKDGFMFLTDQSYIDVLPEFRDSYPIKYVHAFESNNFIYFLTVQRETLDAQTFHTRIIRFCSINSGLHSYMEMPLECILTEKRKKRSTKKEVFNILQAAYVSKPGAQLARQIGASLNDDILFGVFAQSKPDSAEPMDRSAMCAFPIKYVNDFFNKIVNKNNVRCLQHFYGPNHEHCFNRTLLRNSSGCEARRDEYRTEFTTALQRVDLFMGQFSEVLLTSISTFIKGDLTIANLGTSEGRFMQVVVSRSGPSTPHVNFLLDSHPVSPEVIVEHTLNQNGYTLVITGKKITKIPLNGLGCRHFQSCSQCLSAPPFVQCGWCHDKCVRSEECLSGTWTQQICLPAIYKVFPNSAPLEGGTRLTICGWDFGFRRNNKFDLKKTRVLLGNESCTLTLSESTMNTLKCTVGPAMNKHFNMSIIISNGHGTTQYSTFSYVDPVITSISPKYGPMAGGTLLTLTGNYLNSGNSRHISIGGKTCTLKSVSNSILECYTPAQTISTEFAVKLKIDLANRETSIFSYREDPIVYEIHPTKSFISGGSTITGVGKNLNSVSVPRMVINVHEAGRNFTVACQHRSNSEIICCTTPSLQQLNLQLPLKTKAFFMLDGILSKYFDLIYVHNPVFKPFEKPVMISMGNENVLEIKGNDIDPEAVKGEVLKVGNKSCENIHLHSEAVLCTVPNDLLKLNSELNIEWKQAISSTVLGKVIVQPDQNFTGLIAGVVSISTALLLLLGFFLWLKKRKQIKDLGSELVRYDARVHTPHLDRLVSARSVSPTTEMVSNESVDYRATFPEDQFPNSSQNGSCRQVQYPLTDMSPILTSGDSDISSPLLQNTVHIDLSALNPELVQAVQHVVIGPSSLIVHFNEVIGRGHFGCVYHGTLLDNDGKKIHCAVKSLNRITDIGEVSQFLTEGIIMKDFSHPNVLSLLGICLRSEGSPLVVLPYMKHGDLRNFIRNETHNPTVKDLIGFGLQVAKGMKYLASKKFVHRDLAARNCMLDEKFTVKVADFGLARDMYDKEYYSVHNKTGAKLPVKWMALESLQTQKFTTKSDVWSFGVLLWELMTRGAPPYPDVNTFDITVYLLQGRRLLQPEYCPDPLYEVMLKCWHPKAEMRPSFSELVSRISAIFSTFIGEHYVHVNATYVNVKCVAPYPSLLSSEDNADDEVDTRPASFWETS

MET [3] = target: T1, MET; test: Test A: HTRF MET assay in 96-well format; type: biochemical; set-up: The His-Tev-MET (956-1390) recombinant DNA in pFastBac (Invitrogen) is transfected into insect cells; His (N, cleaved yes); Tev cleavage site (N, cleaved yes); made in house; host or cells: SF21 insect cells (baculovirus, pFastBac); conditions: 5 nM MET, 10 μM ATP
Description: I) Expression and Purification of MET, Cytoplasmic Domain
The His-Tev-MET (956-1390) recombinant DNA in pFastBac (Invitrogen) is transfected into insect cells and, after several viral amplification stages, the final baculovirus stock is tested for the expression of the protein of interest.
After infection for 72 h at 27° C. with the recombinant virus, the SF21 cell cultures are harvested by centrifugation and the cell pellets are stored at −80° C.
The cell pellets are resuspended in lysis buffer (buffer A [50 mM HEPES, pH 7.5, 250 mM NaCl, 10% glycerol, 1 mM TECP]; + cocktail of protease inhibitors, Roche Diagnostics, without EDTA, ref. 1873580), stirred at 4° C. until the mixture is homogeneous and then lysed mechanically using a “Dounce” type apparatus.
After centrifugation, the lysis supernatant is incubated for 2 h at 4° C. with nickel chelate resin (His-Trap 6 Fast Flow™, GE HealthCare). After washing with 20 volumes of buffer A, the suspension is packed into a column, and the proteins are eluted with a gradient of buffer B (buffer A+290 mM imidazole).
The fractions comprising the protein of interest for the purpose of electrophoretic analysis (SDS PAGE) are combined, concentrated by ultrafiltration (10 kDa cut-off) and injected onto an exclusion chromatography column (Superdex™ 200, GE HealthCare) equilibrated in buffer A.
After enzymatic cleavage of the histidine tag, the protein is reinjected onto a new IMAC nickel chelate chromatography column (His-Trap 6 Fast Flow™, GE HealthCare) equilibrated in buffer A. The fractions eluted with a gradient of buffer B and comprising the protein of interest after electrophoresis (SDS PAGE) are finally combined and conserved at −80° C.
For the production of autophosphorylated protein, the previous fractions are incubated for 1 h at ambient temperature after the addition of 2 mM ATP, 2 mM MgCl2, and 4 mM Na3VO4. After the reaction has been stopped with 5 mM of EDTA, the reaction mixture is injected onto a HiPrep desalifying column (GE HealthCare) preequilibrated in buffer A+4 mM Na3VO4, and the fractions comprising the protein of interest (SDS PAGE analysis) are combined and stored at −80° C. The degree of phosphorylation is verified by mass spectrometry (LC-MS) and by peptide mapping.
A) Test A: HTRF MET Assay in 96-Well Format
MET at a final concentration of 5 nM is incubated in a final volume of 50 μl of enzymatic reaction in the presence of the test molecule (for a final concentration range of from 0.17 nM to 10 μM, 3% DMSO final concentration) in 10 mM MOPS buffer, pH 7.4, 1 mM DTT, 0.01% Tween 20. The reaction is initiated with the substrate solution to obtain final concentrations of 1 μg/ml poly-(GAT), 10 μM ATP and 5 mM MgCl2. After incubation for 10 min at ambient temperature, the reaction is stopped with a 30 μl mix so as to obtain a final solution of 50 mM Hepes, pH 7.5, 500 mM potassium fluoride, 0.1% BSA and 133 mM EDTA in the presence of 80 ng of streptavidin 61SAXLB Cis-Bio Int. and 18 ng of anti-phosphotyrosine Mab PT66-Europium Cryptate per well. After incubation for 2 hours at ambient temperature, the reading is taken at 2 wavelengths, 620 nm and 665 nm, on a reader for the TRACE/HTRF technique and the % inhibition is calculated from the 665/620 ratios.
Target sequence in this assay (P08581 956-1390): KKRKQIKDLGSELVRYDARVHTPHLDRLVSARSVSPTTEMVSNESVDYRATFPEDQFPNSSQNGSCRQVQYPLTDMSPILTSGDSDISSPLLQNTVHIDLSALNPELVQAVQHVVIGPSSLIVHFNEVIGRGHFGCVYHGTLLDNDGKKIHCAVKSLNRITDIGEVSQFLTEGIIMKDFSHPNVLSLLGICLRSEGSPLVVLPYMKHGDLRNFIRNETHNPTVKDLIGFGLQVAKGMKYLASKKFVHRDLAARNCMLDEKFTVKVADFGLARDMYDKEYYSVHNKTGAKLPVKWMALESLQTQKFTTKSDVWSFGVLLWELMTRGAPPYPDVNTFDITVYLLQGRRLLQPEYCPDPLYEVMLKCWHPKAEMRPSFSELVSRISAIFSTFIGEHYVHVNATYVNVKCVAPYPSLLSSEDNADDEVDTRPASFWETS

Q: For `O=C(Nc1nc2ccc(S(=O)(=O)c3cnc4ncccn34)cc2s1)C1CC1` [Example 7, N-[6-(imidazo[1,2-a]pyrimidin-3-ylsulphonyl)-1,3-benzothiazol-2-yl]cyclopropanecarboxamide], which IC50 [1] is on record?
A: Its IC50 is under 1000 nM.

Q: What about the IC50 (MET [2]) of the same molecule?
A: The IC50 was under 100 nM.

Q: And the IC50 (MET [3])?
A: The IC50 was under 100 nM.

Q: And the melting point?
A: The melting point was 232 °C.

Q: Which IC50 [1] does the source give for `O=C(CCN1CCCC1)Nc1nc2ccc(Sc3cnc4ncccn34)cc2s1` [Example 8, N-[6-(imidazo[1,2-a]pyrimidin-3-ylsulphanyl)-1,3-benzothiazol-2-yl]-3-(pyrrolidin-1-yl)propanamide] here?
A: Its IC50 is under 1000 nM.

Q: What about the IC50 (MET [2]) of the same molecule?
A: Its IC50 is under 100 nM.

Q: What about the IC50 (MET [3]) of the same molecule?
A: Its IC50 is under 100 nM.

Q: And the melting point?
A: The melting point was 247 °C.

Q: For `CC(C)(C)OC(=O)NCC(=O)Nc1nc2ccc(Sc3cnc4ncccn34)cc2s1` [Example 11, 2-methylpropan-2-yl(2-{[6-(imidazo[1,2-a]pyrimidin-3-ylsulphanyl)-1,3-benzothiazol-2-yl]amino}-2-oxoethyl)carbamate], which IC50 [1] is on record?
A: The IC50 was under 1000 nM.

Q: And the IC50 (MET [2])?
A: The IC50 was under 500 nM.

Q: And the IC50 (MET [3])?
A: Its IC50 is under 100 nM.

Q: What about the melting point of the same molecule?
A: Its melting point is over 260 °C.

Q: With `CCN1CCN(CC(=O)Nc2nc3ccc(Sc4cnc5ncccn45)cc3s2)CC1` [Example 15, 2-(4-ethylpiperazin-1-yl)-N-[6-(imidazo[1,2-a]pyrimidin-3-ylsulphanyl)-1,3-benzothiazol-2-yl]acetamide] as the molecule, how does the IC50 [1] read?
A: Its IC50 is under 1000 nM.

Q: What about the IC50 (MET [2]) of the same molecule?
A: Its IC50 is under 100 nM.

Q: What about the IC50 (MET [3]) of the same molecule?
A: The IC50 was under 100 nM.

Q: What about the melting point of the same molecule?
A: The melting point was 210 °C.

Q: Which IC50 [1] does the source give for `O=C(CN1CCN(C2CC2)CC1)Nc1nc2ccc(Sc3cnc4ncccn34)cc2s1` [Example 16, 2-(4-cyclopropylpiperazin-1-yl)-N-[6-(imidazo[1,2-a]pyrimidin-3-ylsulphanyl)-1,3-benzothiazol-2-yl]acetamide] here?
A: Its IC50 is under 1000 nM.

Q: And the IC50 (MET [2])?
A: The IC50 was under 100 nM.

Q: What about the IC50 (MET [3]) of the same molecule?
A: The IC50 was under 100 nM.

Q: And the melting point?
A: The melting point was 224 °C.

Q: Which IC50 [1] does the source give for `CCN(CC)CC(=O)Nc1nc2ccc(Sc3cnc4ncccn34)cc2s1` [Example 17, N2,N2-diethyl-N-[6-(imidazo[1,2-a]pyrimidin-3-ylsulphanyl)-1,3-benzothiazol-2-yl]glycinamide] here?
A: Its IC50 is under 1000 nM.

Q: What about the IC50 (MET [2]) of the same molecule?
A: Its IC50 is under 500 nM.

Q: And the IC50 (MET [3])?
A: The IC50 was under 100 nM.

Q: What about the melting point of the same molecule?
A: The melting point was 180 °C.

Q: With `O=C(Nc1nc2cc(F)c(Sc3cnc4ncccn34)cc2s1)C1CC1` [Example 18, N-[5-fluoro-6-(imidazo[1,2-a]pyrimidin-3-ylsulphanyl)-1,3-benzothiazol-2-yl]cyclopropanecarboxamide] as the molecule, how does the IC50 [1] read?
A: Its IC50 is under 1000 nM.

Q: And the IC50 (MET [2])?
A: The IC50 was under 100 nM.

Q: What about the IC50 (MET [3]) of the same molecule?
A: The IC50 was under 100 nM.

Q: What about the melting point of the same molecule?
A: The melting point was over 260 °C.

Q: What does the source list for `Nc1nc2cc(F)c(Sc3cnc4ncccn34)cc2s1` [Example 19, 5-fluoro-6-(imidazo[1,2-a]pyrimidin-3-ylsulphanyl)-1,3-benzothiazol-2-amine]?
A: IC50 [1]: < 1000 nM; IC50 (MET [2]): < 100 nM; IC50 (MET [3]): < 100 nM; melting point: > 264 °C

Q: With `COCCC(=O)Nc1nc2ccc(Sc3cnc4ncccn34)cc2s1` [Example 20, N-[6-(imidazo[1,2-a]pyrimidin-3-ylsulphanyl)-1,3-benzothiazol-2-yl]-3-methoxypropanamide] as the molecule, how does the IC50 [1] read?
A: Its IC50 is under 1000 nM.

Q: What about the IC50 (MET [2]) of the same molecule?
A: Its IC50 is under 100 nM.

Q: What about the IC50 (MET [3]) of the same molecule?
A: The IC50 was under 100 nM.

Q: What about the melting point of the same molecule?
A: Its melting point is 225 °C.

Q: With `Nc1ccn2c(Sc3ccc4nc(NC(=O)C5CC5)sc4c3)cnc2n1` [Example 22, N-{6-[(7-aminoimidazo[1,2-a]pyrimidin-3-yl)sulphanyl]-1,3-benzothiazol-2-yl}cyclopropanecarboxamide] as the molecule, how does the IC50 [1] read?
A: The IC50 was under 1000 nM.

Q: What about the IC50 (MET [2]) of the same molecule?
A: Its IC50 is under 100 nM.

Q: What about the IC50 (MET [3]) of the same molecule?
A: The IC50 was under 100 nM.

Q: What about the melting point of the same molecule?
A: Its melting point is over 264 °C.

Q: Which IC50 [1] does the source give for `O=C(Nc1nc2ccc(Sc3cnc4ncc(NCc5ccccc5)cn34)cc2s1)C1CC1` [Example 26, N-(6-{[6-(benzylamino)imidazo[1,2-a]pyrimidin-3-yl]sulphanyl}-1,3-benzothiazol-2-yl)cyclopropanecarboxamide] here?
A: The IC50 was under 1000 nM.

Q: And the IC50 (MET [2])?
A: Its IC50 is under 100 nM.

Q: And the IC50 (MET [3])?
A: Its IC50 is under 100 nM.

Q: What about the melting point of the same molecule?
A: Its melting point is over 260 °C.

Q: Which IC50 [1] does the source give for `O=C(Nc1nc2ccc(Sc3cnc4ncccn34)cc2s1)C1CCOCC1` [Example 27, N-[6-(imidazo[1,2-a]pyrimidin-3-ylsulphanyl)-1,3-benzothiazol-2-yl]tetrahydro-2H-pyran-4-carboxamide] here?
A: Its IC50 is under 1000 nM.

Q: And the IC50 (MET [2])?
A: The IC50 was under 500 nM.

Q: What about the IC50 (MET [3]) of the same molecule?
A: The IC50 was under 100 nM.

Q: And the melting point?
A: The melting point was 270 °C.
